Data on 23 compounds can be found in patent US20240208909A1, “SUBSTITUTED QUINOLINE DERIVATIVES HAVING SOS1 INHIBITION ACTIVITIES AND USES THEREOF” (Accutar Biotechnology Inc., priority 2022, published 2024).

Test [1] relates to Phospho-ERK1/2 in DLD1 cells. In words: Phospho-ERK1/2 expression inhibition in DLD1 cells. It counts as cell-based. As to conditions: Homo sapiens, DLD-1, 4 hours, read-out: DLD1 pERK IC50. The procedure, abridged: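 DLD1 cells (15,000/well) were plated overnight, then exposed to compounds for 4 h at 37 °C. Cells were formaldehyde-fixed and methanol-permeabilized. Phospho-ERK1/2 was detected in-cell with rabbit anti-phospho-ERK1/2 and an IRDye 800CW secondary antibody, imaged on a LI-COR Odyssey.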

For a further test, the target named is SOS1/KRAS-G12D (Homo sapiens (Human), UniProt Q07889). The experiment in a line: SOS1/KRAS-G12D binding inhibition assay (AlphaScreen). As to conditions: GST-SOS1 and 6*His KRAS-G12D, read-out: KrasG12D/SOS1 binding IC50. The essentials: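 GST-SOS1 (5 nM) pre-incubated 30 min with His6-KRAS-G12D (50 nM) in HEPES pH 7.4, NaCl, DTT, MgCl2, Tween-20, BSA; compound in 2% DMSO then added for 30 min at 4° C. GSH donor and Ni-NTA acceptor AlphaScreen beads, 2 h at 4° C; background-corrected % inhibition versus DMSO, IC50 by variable-slope nonlinear regression.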

Another test has as its system K562 cells. The experiment in a line: Cell growth inhibition of K562 cells (CellTiter-Glo). It counts as cell-based. The note with it: Homo sapiens, 120 h, 5 days.

As a reminder, the GI50 is the concentration giving 50% growth inhibition. Low readings indicate greater sensitivity of the cells, high ones lower sensitivity of the cells.

Structures are written as SMILES.

Sequence of SOS1/KRAS-G12D (Q07889 564-1049 limits assumed): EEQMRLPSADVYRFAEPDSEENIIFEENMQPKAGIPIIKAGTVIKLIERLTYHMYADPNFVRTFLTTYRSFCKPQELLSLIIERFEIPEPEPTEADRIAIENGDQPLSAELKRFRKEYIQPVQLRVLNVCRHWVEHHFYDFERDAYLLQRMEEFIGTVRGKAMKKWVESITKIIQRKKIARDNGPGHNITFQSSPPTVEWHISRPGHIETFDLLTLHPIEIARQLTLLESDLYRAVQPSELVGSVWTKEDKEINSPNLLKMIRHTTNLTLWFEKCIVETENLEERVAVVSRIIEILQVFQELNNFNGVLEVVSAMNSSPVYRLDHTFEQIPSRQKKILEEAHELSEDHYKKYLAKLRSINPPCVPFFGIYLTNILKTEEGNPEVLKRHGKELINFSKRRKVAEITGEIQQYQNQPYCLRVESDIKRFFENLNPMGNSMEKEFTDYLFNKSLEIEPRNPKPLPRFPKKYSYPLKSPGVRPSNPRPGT

Take `Cc1c([C@@H](C)Nc2ccnc3ccc(N4CCN(CC(F)(F)F)CC4)cc23)cccc1C(F)(F)F` [Compound 52, (R)-N-(1-(2-methyl-3-(trifluoromethyl)phenyl)ethyl)-6-(4-(2,2,2-trifluoroethyl)piperazin-1-yl)quinolin-4-amine]: the IC50 in test [1] was > 0.5 µM; on SOS1/KRAS-G12D, > 0.1 µM. In addition, the GI50 in the test with K562 cells was > 0.5 µM.
Consider `Cc1c([C@@H](C)Nc2ccnc3ccc(N4CCN(C(=O)C5CCCO5)CC4)cc23)cccc1C(F)(F)F` (stereo partly drawn) [Compound 53, (4-(4-(((R)-1-(2-methyl-3-(trifluoromethyl)phenyl)ethyl)amino)quinolin-6-yl)piperazin-1-yl)(tetrahydrofuran-2-yl)methanone], for which the IC50 in test [1] was > 0.5 µM; at SOS1/KRAS-G12D, 0.01 to 0.1 µM. This compound also gave a GI50 in the test on K562 cells of 0.1 to 0.5 µM.
On to `Cc1c([C@@H](C)Nc2ccnc3ccc(N4C[C@H](C)NC[C@H]4C)cc23)cccc1C(F)(F)F` [Compound 54, 6-((2R,5S)-2,5-dimethylpiperazin-1-yl)-N-((R)-1-(2-methyl-3-(trifluoromethyl)phenyl)ethyl)quinolin-4-amine], for which the IC50 was > 0.5 µM in test [1] and 0.01 to 0.1 µM at SOS1/KRAS-G12D. Further, in the test with K562 cells, the 50% growth inhibitory concentration (GI50) lay within 0.1 to 0.5 µM.
For the compound `COc1cc2nccc(N[C@H](C)c3cccc(C(F)(F)F)c3C)c2cc1N1CCNCC1` [Compound 55, (R)-7-methoxy-N-(1-(2-methyl-3-(trifluoromethyl)phenyl)ethyl)-6-(piperazin-1-yl)quinolin-4-amine], the IC50 is > 0.5 µM in test [1] and 0.01 to 0.1 µM at SOS1/KRAS-G12D. In addition, in the test on K562 cells, the GI50 was > 0.5 µM.
Turning to `Cc1c([C@@H](C)Nc2ccnc3ccc(N4C[C@@H](C)NC[C@@H]4C)cc23)cccc1C(F)(F)F` [Compound 56, 6-((2S,5R)-2,5-dimethylpiperazin-1-yl)-N-((R)-1-(2-methyl-3-(trifluoromethyl)phenyl)ethyl)quinolin-4-amine], the values for the IC50 (in test [1]; on SOS1/KRAS-G12D) were > 0.5 µM and 0.01 to 0.1 µM, respectively. In the test on K562 cells, this compound had a GI50 of 0.1 to 0.5 µM.
On the same counts, the results for `CC(=O)N1C[C@@H](C)N(c2ccc3nccc(N[C@H](C)c4cccc(C(F)(F)F)c4C)c3c2)C[C@@H]1C` [Compound 57, 1-((2S,5R)-2,5-dimethyl-4-(4-(((R)-1-(2-methyl-3-(trifluoromethyl)phenyl)ethyl)amino)quinolin-6-yl)piperazin-1-yl)ethan-1-one] are > 0.5 µM, > 0.1 µM and 0.1 to 0.5 µM.
Consider `Cc1c([C@@H](C)Nc2ccnc3ccc(N4CC5CC(C4)N5)cc23)cccc1C(F)(F)F` [Compound 58, 6-(3,6-diazabicyclo[3.1.1]heptan-3-yl)-N-((R)-1-(2-methyl-3-(trifluoromethyl)phenyl)ethyl)quinolin-4-amine], for which the values for the IC50 (in test [1]; on SOS1/KRAS-G12D) were > 0.5 µM and 0.01 to 0.1 µM, respectively. The GI50 in the test on K562 cells lay within 0.1 to 0.5 µM.
In the same order, the values of `Cc1c([C@@H](C)Nc2ccnc3ccc(N4CC5CCC(C4)N5)cc23)cccc1C(F)(F)F` [Compound 59, 6-(3,8-diazabicyclo[3.2.1]octan-3-yl)-N-((R)-1-(2-methyl-3-(trifluoromethyl)phenyl)ethyl)quinolin-4-amine] are > 0.5 µM, 0.01 to 0.1 µM and 0.1 to 0.5 µM.
For `Cc1c([C@@H](C)Nc2ccnc3ccc(N4CCNC[C@@H]4C)cc23)cccc1C(F)(F)F` [Compound 60, N-((R)-1-(2-methyl-3-(trifluoromethyl)phenyl)ethyl)-6-((S)-2-methylpiperazin-1-yl)quinolin-4-amine], the IC50 is > 0.5 µM in test [1] and 0.01 to 0.1 µM on SOS1/KRAS-G12D. Also, the GI50 with K562 cells fell in the range of 0.1 to 0.5 µM.
In the same order, the values of `CC(=O)N1CCN(c2ccc3nccc(N[C@H](C)c4cccc(C(F)(F)F)c4C)c3c2)[C@@H](C)C1` [Compound 61, 1-((S)-3-methyl-4-(4-(((R)-1-(2-methyl-3-(trifluoromethyl)phenyl)ethyl)amino)quinolin-6-yl)piperazin-1-yl)ethan-1-one] are > 0.5 µM, > 0.1 µM and > 0.5 µM.
`CC(=O)N1CCCN(c2ccc3nccc(N[C@H](C)c4cccc(C(F)(F)F)c4C)c3c2)CC1` [Compound 62, (R)-1-(4-(4-((1-(2-methyl-3-(trifluoromethyl)phenyl)ethyl)amino)quinolin-6-yl)-1,4-diazepan-1-yl)ethan-1-one]: the IC50 in test [1] is > 0.5 µM; on SOS1/KRAS-G12D, > 0.1 µM. The GI50 in the test on K562 cells is > 0.5 µM.
As for `Cc1c([C@@H](C)Nc2ccnc3ccc(N4CCCNCC4)cc23)cccc1C(F)(F)F` [Compound 63, (R)-6-(1,4-diazepan-1-yl)-N-(1-(2-methyl-3-(trifluoromethyl)phenyl)ethyl)quinolin-4-amine], the IC50 in test [1] was > 0.5 µM; at SOS1/KRAS-G12D, 0.01 to 0.1 µM. For the same compound, in the test with K562 cells, the GI50 is > 0.5 µM.
`CC(=O)N1C2CC1CN(c1ccc3nccc(N[C@H](C)c4cccc(C(F)(F)F)c4C)c3c1)C2` [Compound 64, 1-(3-(4-(((R)-1-(2-methyl-3-(trifluoromethyl)phenyl)ethyl)amino)quinolin-6-yl)-3,6-diazabicyclo[3.1.1]heptan-6-yl)ethan-1-one]: the values for the IC50 (in test [1]; on SOS1/KRAS-G12D) were > 0.5 µM and 0.01 to 0.1 µM, respectively. In addition, in the test with K562 cells, the GI50 was > 0.5 µM.
As for `Cc1c([C@@H](C)Nc2ccnc3ccc(N4CCC(N5CCC5)CC4)cc23)cccc1C(F)(F)F` [Compound 65, (R)-6-(4-(azetidin-1-yl)piperidin-1-yl)-N-(1-(2-methyl-3-(trifluoromethyl)phenyl)ethyl)quinolin-4-amine], the figures for the IC50 (in test [1]; at SOS1/KRAS-G12D) were > 0.5 µM and 0.01 to 0.1 µM, respectively. Also, the GI50 in the test with K562 cells is > 0.5 µM.
For `CC(=O)N1C[C@H](C)N(c2ccc3nccc(N[C@H](C)c4cccc(C(F)(F)F)c4C)c3c2)C[C@H]1C` [Compound 66, 1-((2R,5S)-2,5-dimethyl-4-(4-(((R)-1-(2-methyl-3-(trifluoromethyl)phenyl)ethyl)amino)quinolin-6-yl)piperazin-1-yl)ethan-1-one], the IC50 in test [1] was > 0.5 µM; on SOS1/KRAS-G12D it was > 0.1 µM. Moreover, the GI50 in the test on K562 cells was > 0.5 µM.
Turning to `Cc1c([C@@H](C)Nc2ccnc3ccc(N4CCNC5(CC5)C4)cc23)cccc1C(F)(F)F` [Compound 69, (R)-N-(1-(2-methyl-3-(trifluoromethyl)phenyl)ethyl)-6-(4,7-diazaspiro[2.5]octan-7-yl)quinolin-4-amine], the IC50 in test [1] was > 0.5 µM; at SOS1/KRAS-G12D, 0.01 to 0.1 µM. In the test on K562 cells, this compound yielded a GI50 of 0.1 to 0.5 µM.
In the same order, the values of `CC(=O)N1CCN(c2ccc3nccc(N[C@H](C)c4cccc(C(F)(F)F)c4C)c3c2)CC12CC2` [Compound 70, (R)-1-(7-(4-((1-(2-methyl-3-(trifluoromethyl)phenyl)ethyl)amino)quinolin-6-yl)-4,7-diazaspiro[2.5]octan-4-yl)ethan-1-one] are > 0.5 µM, 0.01 to 0.1 µM and 0.1 to 0.5 µM.
Turning to `COC1(c2ccc3nccc(N[C@H](C)c4cccc(C(F)F)c4F)c3c2)CCN(C(C)=O)CC1` [Compound 72, (R)-1-(4-(4-((1-(3-(difluoromethyl)-2-fluorophenyl)ethyl)amino)quinolin-6-yl)-4-methoxypiperidin-1-yl)ethan-1-one], the IC50 in test [1] was ≤ 0.15 µM; on SOS1/KRAS-G12D it was ≤ 0.01 µM. The 50% growth inhibitory concentration (GI50) in the test on K562 cells was ≤ 0.1 µM.
`COc1cc2nccc(N[C@H](C)c3cccc(C(F)F)c3F)c2cc1C1(OC)CCN(C(C)=O)CC1` [Compound 73, (R)-1-(4-(4-((1-(3-(difluoromethyl)-2-fluorophenyl)ethyl)amino)-7-methoxyquinolin-6-yl)-4-methoxypiperidin-1-yl)ethan-1-one]: the IC50 in test [1] is > 0.5 µM; on SOS1/KRAS-G12D, ≤ 0.01 µM. The GI50 in the test with K562 cells is > 0.5 µM.
Turning to `COC(=O)N1CCC(F)(c2cc3c(N[C@H](C)c4cccc(C(F)(F)F)c4C)ccnc3cc2OC)CC1` [Compound 74, Methyl (R)-4-fluoro-4-(7-methoxy-4-((1-(2-methyl-3-(trifluoromethyl)phenyl)ethyl)amino)quinolin-6-yl)piperidine-1-carboxylate], the IC50 was in the range of 0.15 to 0.5 µM in test [1] and 0.01 to 0.1 µM at SOS1/KRAS-G12D. The same compound came in with a concentration for 50% growth inhibition (GI50) with K562 cells of 0.1 to 0.5 µM.
In the same order, the values of `CO[C@@]1(c2ccc3nccc(N[C@H](C)c4cccc(C(F)F)c4F)c3c2)CCN(C(C)=O)C1` [Compound 75, 1-((R)-3-(4-(((R)-1-(3-(difluoromethyl)-2-fluorophenyl)ethyl)amino)quinolin-6-yl)-3-methoxypyrrolidin-1-yl)ethan-1-one] are > 0.5 µM, ≤ 0.01 µM and 0.1 to 0.5 µM.
In the case of `CO[C@]1(c2ccc3nccc(N[C@H](C)c4cccc(C(F)F)c4F)c3c2)CCN(C(C)=O)C1` [Compound 76, 1-((S)-3-(4-(((R)-1-(3-(difluoromethyl)-2-fluorophenyl)ethyl)amino)quinolin-6-yl)-3-methoxypyrrolidin-1-yl)ethan-1-one], the IC50 in test [1] is ≤ 0.15 µM; at SOS1/KRAS-G12D, ≤ 0.01 µM. Besides, in the test on K562 cells, the 50% growth inhibitory concentration (GI50) was ≤ 0.1 µM.
In the same order, the values of `COC1(c2ccc3nccc(N[C@H](C)c4cccc(C(F)(F)F)c4C)c3c2)CCN(C(=O)CC#N)CC1` [Compound 77, (R)-3-(4-methoxy-4-(4-((1-(2-methyl-3-(trifluoromethyl)phenyl)ethyl)amino)quinolin-6-yl)piperidin-1-yl)-3-oxopropanenitrile] are 0.15 to 0.5 µM, 0.01 to 0.1 µM and > 0.5 µM.
